In patent publication US20230019491A1, “PYRIMIDINE TBK/IKKe INHIBITOR COMPOUNDS AND USES THEREOF” (Merck Patent GmbH, priority 2017, published 2023):

Legend:
[1] = biological target: T1, IKKε (Homo sapiens, UniProt Q14164); assay: IKKε biochemical assay; conditions: 10 point 1:4 dose response, 30 uM top concentration, 90 min at 25° C., LabChip EZ Reader II; read-out: IKKε_IC50
T1 sequence (Q14164 1-716): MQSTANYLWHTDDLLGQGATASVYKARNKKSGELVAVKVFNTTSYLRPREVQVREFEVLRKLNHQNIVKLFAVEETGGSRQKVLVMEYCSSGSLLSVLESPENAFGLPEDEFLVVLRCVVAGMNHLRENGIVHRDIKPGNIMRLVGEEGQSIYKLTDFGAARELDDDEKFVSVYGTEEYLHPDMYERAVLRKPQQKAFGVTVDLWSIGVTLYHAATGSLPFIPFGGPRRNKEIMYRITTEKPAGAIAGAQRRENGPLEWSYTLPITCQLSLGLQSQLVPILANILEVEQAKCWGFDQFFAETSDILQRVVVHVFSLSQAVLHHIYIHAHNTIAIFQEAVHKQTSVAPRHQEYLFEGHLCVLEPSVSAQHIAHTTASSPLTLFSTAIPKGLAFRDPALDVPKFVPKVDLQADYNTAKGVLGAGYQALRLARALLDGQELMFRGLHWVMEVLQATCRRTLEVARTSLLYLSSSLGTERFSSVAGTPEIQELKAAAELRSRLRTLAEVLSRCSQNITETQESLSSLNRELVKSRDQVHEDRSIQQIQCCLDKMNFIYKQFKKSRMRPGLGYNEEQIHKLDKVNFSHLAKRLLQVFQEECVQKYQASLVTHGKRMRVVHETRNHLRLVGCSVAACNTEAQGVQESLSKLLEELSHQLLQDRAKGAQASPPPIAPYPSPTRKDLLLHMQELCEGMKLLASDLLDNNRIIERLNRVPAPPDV
Outline: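 Mobility-shift LabChip read-out followed a 90 min, 25° C. reaction of IKKε with substrate and test compound, with DMSO held at 1% final. Reactions were ended with stop buffer. Wells with 10 uM final staurosporine defined complete inhibition, and DMSO-only wells the uninhibited level.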

[2] = biological target: T2, TBK1 (Homo sapiens, UniProt Q9UHD2); assay: TBK biochemical assay; conditions: 10 point 1:4 dose response, 30 uM top concentration, 90 min at 25° C., LabChip EZ Reader II; read-out: TBK1_IC50
T2 sequence (Q9UHD2 1-729): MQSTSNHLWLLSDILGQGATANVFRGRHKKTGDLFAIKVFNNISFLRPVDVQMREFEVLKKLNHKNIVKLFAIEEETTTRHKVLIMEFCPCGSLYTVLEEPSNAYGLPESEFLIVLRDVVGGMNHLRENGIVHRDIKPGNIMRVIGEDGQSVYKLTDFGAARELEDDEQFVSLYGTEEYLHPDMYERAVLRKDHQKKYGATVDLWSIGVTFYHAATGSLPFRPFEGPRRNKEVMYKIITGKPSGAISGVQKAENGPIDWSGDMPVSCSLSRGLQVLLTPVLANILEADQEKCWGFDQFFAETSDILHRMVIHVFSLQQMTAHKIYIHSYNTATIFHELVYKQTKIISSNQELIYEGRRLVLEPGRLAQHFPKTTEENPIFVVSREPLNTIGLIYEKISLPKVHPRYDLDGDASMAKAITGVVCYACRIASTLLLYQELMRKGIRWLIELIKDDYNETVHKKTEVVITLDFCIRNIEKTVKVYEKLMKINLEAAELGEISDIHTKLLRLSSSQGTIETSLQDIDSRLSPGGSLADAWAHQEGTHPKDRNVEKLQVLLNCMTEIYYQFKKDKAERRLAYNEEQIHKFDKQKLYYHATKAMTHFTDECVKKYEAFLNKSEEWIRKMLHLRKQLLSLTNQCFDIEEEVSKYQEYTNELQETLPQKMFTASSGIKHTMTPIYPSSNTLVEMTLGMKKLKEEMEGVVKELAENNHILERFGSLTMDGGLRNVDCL
Outline: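 Read-out was a Caliper LabChip mobility-shift assay, run after a 90-min, 25 °C reaction of TBK1 with substrate and compounds, quenched with stop buffer. Control wells received staurosporine at 10 uM final.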

| SMILES | IC50 [1] [nM] | IC50 [2] [nM] |
| --- | --- | --- |
| COc1nc(Nc2nccc(-c3ccc(O[C@H]4CCNC[C@H]4F)c(C#N)c3)n2)ccc1N1CCN(C2COC2)CC1 [Example 198, 2-[[(3R,4S)-3-fluoropiperidin-4-yl]oxy]-5-[2-([6-methoxy-5-[4-(oxetan-3-yl)piperazin-1-yl]pyridin-2-yl]amino)pyrimidin-4-yl]benzonitrile] | < 100 | < 100 |
| COc1nc(Nc2nccc(-c3ccc(OC4CCN(C(=O)[C@@H](C)O)CC4(F)F)c(C#N)c3)n2)ccc1N1CCN(C2COC2)C[C@H]1C (stereo partly drawn) [Example 130, 2-[3,3-Difluoro-1-((R)-2-hydroxy-propionyl)-piperidin-4-yloxy]-5-{2-[6-methoxy-5-((R)-2-methyl-4-oxetan-3-yl-piperazin-1-yl)-pyridin-2-ylamino]-pyrimidin-4-yl}-benzonitrile] | < 100 | < 100 |
| COc1nc(Nc2nccc(-c3ccc(OC4CCN(C(=O)C(C)F)CC4(F)F)c(C#N)c3)n2)ccc1N1CCN(C2COC2)CC1 (stereo not drawn) [Example 259, 2-[3,3-Difluoro-1-(2-fluoro-propionyl)-piperidin-4-yloxy]-5-{2-[6-methoxy-5-(4-oxetan-3-yl-piperazin-1-yl)-pyridin-2-ylamino]-pyrimidin-4-yl}-benzonitrile] | < 100 | < 100 |
| COc1nc(Nc2nccc(-c3ccc(O[C@@H]4CCN(C(=O)[C@H](C)O)CC4(F)F)c(C#N)c3)n2)ccc1N1CCN(C2COC2)[C@@H](C)C1 [Example 248, 2 2-[(R)-3,3-Difluoro-1-((S)-2-hydroxy-propionyl)-piperidin-4-yloxy]-5-{2-[6-methoxy-5-((S)-3-methyl-4-oxetan-3-yl-piperazin-1-yl)-pyridin-2-ylamino]-pyrimidin-4-yl}-benzonitrile] | < 100 | < 100 |
| COc1nc(Nc2nccc(-c3ccc(OC4CCN(C)CC4(F)F)c(C#N)c3)n2)ccc1N1CCN(C)CC1 (stereo not drawn) [Example 98, 2-[(3,3-difluoro-1-methylpiperidin-4-yl)oxy]-5-(2-[[6-methoxy-5-(4-methylpiperazin-1-yl)pyridin-2-yl]amino]pyrimidin-4-yl)benzonitrile] | < 100 | < 100 |
| COc1nc(Nc2nccc(-c3ccc(OC4CCOCC4)c(C#N)c3)n2)ccc1N1CCN(CCO)CC1 [Example 167, 5-[2-([5-[4-(2-hydroxyethyl)piperazin-1-yl]-6-methoxypyridin-2-yl]amino)pyrimidin-4-yl]-2-(oxan-4-yloxy)benzonitrile] | < 100 | < 100 |
| COc1nc(Nc2nccc(-c3ccc(OC4CCN(C(=O)[C@@H](O)CO)CC4(F)F)c(C#N)c3)n2)ccc1C1CCN(C2COC2)CC1 (stereo partly drawn) [Example 153, 2-[1-((S)-2,3-Dihydroxy-propionyl)-3,3-difluoro-piperidin-4-yloxy]-5-[2-(2-methoxy-1′-oxetan-3-yl-1′,2′,3′,4′,5′,6′-hexahydro-[3,4′]bipyridinyl-6-ylamino)-pyrimidin-4-yl]-benzonitrile] | < 100 | < 100 |
| C[C@@H](O)C(=O)N1CCC(Oc2ccc(-c3ccnc(Nc4ccc(C5CCN(C6COC6)C5)cc4)n3)cc2C#N)C(F)(F)C1 (stereo partly drawn) [Example 214, 2-([3,3-difluoro-1-[(2R)-2-hydroxypropanoyl]piperidin-4-yl]oxy)-5-[2-([4-[1-(oxetan-3-yl)pyrrolidin-3-yl]phenyl]amino)pyrimidin-4-yl]benzonitrile] | < 100 | < 100 |
| C[C@H](O)C(=O)N1CC[C@H](Oc2ccc(-c3nc(Nc4ccc(N5CCN(C6COC6)CC5)cc4)ncc3F)cc2C#N)[C@H](F)C1 [Example 296, 2-({3-fluoro-1-[(2S)-2-hydroxypropanoyl]piperidin-4-yl}oxy)-5-[5-fluoro-2-({4-[4-(oxetan-3-yl)piperazin-1-yl]phenyl}amino)pyrimidin-4-yl]benzonitrile] | < 100 | < 100 |
| COc1nc(Nc2nccc(-c3ccc(O[C@@H]4CCNC[C@@H]4F)c(C#N)c3)n2)ccc1C1CCN(C2COC2)CC1 [Example 235, 2-((3S,4R)-3-Fluoro-piperidin-4-yloxy)-5-[2-(2-methoxy-1′-oxetan-3-yl-1′,2′,3′,4′,5′,6′-hexahydro-[3,4′]bipyridinyl-6-ylamino)-pyrimidin-4-yl]-benzonitrile] | 100 to 1000 | 100 to 1000 |
| COc1nc(Nc2nccc(-c3ccc(OC4CCN(C(=O)[C@H](C)O)CC4(F)F)c(C#N)c3)n2)ccc1N1CCN(C)[C@H](C)C1 (stereo partly drawn) [Example 106, 2-[3,3-Difluoro-1-((S)-2-hydroxy-propionyl)-piperidin-4-yloxy]-5-{2-[5-((R)-3,4-dimethyl-piperazin-1-yl)-6-methoxy-pyridin-2-ylamino]-pyrimidin-4-yl}-benzonitrile] | < 100 | < 100 |
| N#Cc1cc(-c2ccnc(Nc3ccc(N4CCN(C5COC5)CC4)cc3)n2)ccc1OC1CCOCC1 [Example 135, 2-(oxan-4-yloxy)-5-[2-([4-[4-(oxetan-3-yl)piperazin-1-yl]phenyl]amino)pyrimidin-4-yl]benzonitrile] | < 100 | < 100 |
| COc1nc(Nc2nccc(-c3ccc(N4CCC5(CC4)CN(C(=O)[C@H](C)O)C5)c(C#N)c3)n2)ccc1N1CCN(C2COC2)CC1 [Example 316, 2-[2-((S)-2-Hydroxy-propionyl)-2,7-diaza-spiro[3.5]non-7-yl]-5-{2-[6-methoxy-5-(4-oxetan-3-yl-piperazin-1-yl)-pyridin-2-ylamino]-pyrimidin-4-yl}-benzonitrile] | < 100 | < 100 |
| COc1nc(Nc2nccc(-c3ccc(OC4CCOCC4)c(C#N)c3)n2)ccc1C(=O)NC1CCCC1O (stereo not drawn) [Example 9, 6-{4-[3-Cyano-4-(tetrahydro-pyran-4-yloxy)-phenyl]-pyrimidin-2-ylamino}-N-(2-hydroxy-cyclopentyl)-2-methoxy-nicotinamide] | < 100 | < 100 |
| COc1nc(Nc2nccc(-c3ccc(OC4CCN(C(=O)c5cnco5)CC4)c(C#N)c3)n2)ccc1N1CCN(C)CC1 [Example 92, 5-(2-[[6-methoxy-5-(4-methylpiperazin-1-yl)pyridin-2-yl]amino]pyrimidin-4-yl)-2-([1-[(1,3-oxazol-5-yl)carbonyl]piperidin-4-yl]oxy)benzonitrile] | < 100 | < 100 |
| COc1nc(Nc2nccc(-c3ccc(OC4CCN(C(=O)C5(O)CC5)CC4(F)F)c(C#N)c3)n2)ccc1C1CCN(C2COC2)CC1 (stereo not drawn) [Example 237, 2-[3,3-Difluoro-1-(1-hydroxy-cyclopropanecarbonyl)-piperidin-4-yloxy]-5-[2-(2-methoxy-1′-oxetan-3-yl-1′,2′,3′,4′,5′,6′-hexahydro-[3,4′]bipyridinyl-6-ylamino)-pyrimidin-4-yl]-benzonitrile] | < 100 | < 100 |
| COc1nc(Nc2nccc(-c3ccc(OC4CCN(C(=O)[C@H](C)O)CC4(F)F)c(C#N)c3)n2)ccc1C1CCN(C2COC2)CC1 (stereo partly drawn) [Example 152, 2-[3,3-Difluoro-1-((S)-2-hydroxy-propionyl)-piperidin-4-yloxy]-5-[2-(2-methoxy-1′-oxetan-3-yl-1′,2′,3′,4′,5′,6′-hexahydro-[3,4′]bipyridinyl-6-ylamino)-pyrimidin-4-yl]-benzonitrile] | < 100 | < 100 |
| COc1cc(Nc2nccc(-c3ccc(OC4CCN(C(=O)[C@H](C)O)CC4)c(C#N)c3)n2)cnc1N1CCN(C2COC2)CC1 [Example 320, 2-([1-[(2S)-2-hydroxypropanoyl]piperidin-4-yl]oxy)-5-[2-([5-methoxy-6-[4-(oxetan-3-yl)piperazin-1-yl]pyridin-3-yl]amino)pyrimidin-4-yl]benzonitrile] | < 100 | < 100 |
